Consider ten molecules from patent publication US20240252488A1 (KOREA RESEARCH INSTITUTE OF CHEMICAL TECHNOLOGY, priority 2020, published 2024).

Experiment [1] deals with T1, MLKL (Homo sapiens, UniProt Q8NB16).
T1 sequence (Q8NB16 1-471): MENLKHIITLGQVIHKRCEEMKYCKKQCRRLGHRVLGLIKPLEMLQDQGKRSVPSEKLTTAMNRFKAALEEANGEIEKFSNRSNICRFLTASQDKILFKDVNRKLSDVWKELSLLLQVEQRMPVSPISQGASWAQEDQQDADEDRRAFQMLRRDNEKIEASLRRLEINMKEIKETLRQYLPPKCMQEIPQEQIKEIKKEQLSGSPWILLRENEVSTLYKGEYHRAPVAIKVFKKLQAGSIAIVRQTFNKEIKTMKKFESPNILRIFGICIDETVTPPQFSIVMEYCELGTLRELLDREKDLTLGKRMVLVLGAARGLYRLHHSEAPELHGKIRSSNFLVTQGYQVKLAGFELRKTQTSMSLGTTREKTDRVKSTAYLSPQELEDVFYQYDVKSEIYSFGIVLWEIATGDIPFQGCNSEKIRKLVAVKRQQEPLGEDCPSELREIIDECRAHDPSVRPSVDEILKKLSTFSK
In words: MLKL degradation assay in HepG2 cell line (western blot). The class given is cell-based. Also on record: endogenous in cells; host or cells: HepG2 or HaCaT. The note with it: cell line not given; for Degradation assay (Degradation %) 1 μM: compound 1 μM; for Degradation assay (Degradation %) 10 μM: compound 10 μM. An outline of the steps: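 After treating HepG2 with test compounds (final 1 μM or 10 μM) for 20-24 h, we lysed cells, equalized protein by BCA and probed MLKL by overnight primary antibody at 4 °C followed by chemiluminescent detection.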

The next experiment relates to FADD−/− Jurkat cells. In words: Necroptosis inhibition assay, TNF-α-induced necroptosis (CellTiter-Glo 2.0). The experiment is classed as cell-based, human. The note with it: TNF-α 15 ng/mL; for Necroptosis inhibition assay (Rescue %) 1 μM: compound 1 μM; for Necroptosis inhibition assay (Rescue %) 10 μM: compound 10 μM. An outline of the steps:
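Necroptosis was triggered by TNF-α at 15 ng/mL final following 30 minutes of compound exposure (0.1, 1 or 10 μM final). Incubation ran 20 to 24 hours at 37° C under 5% CO2; cell ATP was then quantified by luminescence.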

Experiment [2] addresses T1, MLKL. In words: Measurement of binding affinity with MLKL receptor (competitive binding assay, Kd). Set-up: made in house; host or cells: HEK 293 cell line (T7 phage in E. coli BL21-derived host is also described). Put shortly:
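Competitive displacement of MLKL, expressed in HEK 293 cells and DNA-tagged for qPCR, from immobilized ligand on biotin-blocked beads. Compounds were added from 111× DMSO stocks (final DMSO 0.9%). Kinase left in the eluates was quantified by qPCR to give Kd.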

As to `Nc1ncc(-c2cnn(C3CCN(C(=O)CCC4CCN(C(=O)C5CN(c6ccc7c(c6)C(=O)N(C6CCC(=O)NC6=O)C7=O)C5)CC4)CC3)c2)nc1C(=O)O[C@@H](C(=O)Nc1ccc(F)cc1)c1ccccc1` (stereo partly drawn) [TDH-428, (R)-2-((4-fluorophenyl)amino)-2-oxo-1-phenylethyl 3-amino-6-(1-(1-(3-(1-(1-(2-(2,6-dioxopiperidin-3-yl)-1,3-dioxoisoindolin-5-yl)azetidine-3-carbonyl)piperidin-4-yl)propanoyl)piperidin-4-yl)-1H-pyrazol-4-yl)pyrazine-2-carboxylate], on MLKL [1], the “Degradation assay (Degradation %) 1 μM” value is reported as 58.66% and the “Degradation assay (Degradation %) 10 μM” value was 85.95%. For the same molecule, in the experiment on FADD−/− Jurkat cells (FADD−/− Jurkat cells), the “Necroptosis inhibition assay (Rescue %) 1 μM” value came to 27.27% and the “Necroptosis inhibition assay (Rescue %) 10 μM” value came out at 9.58%. Also, on MLKL [2], the Kd was 4.1 nM.

For `Nc1ncc(-c2cnn(C3CCN(C(=O)CCC4CCN(C(=O)CCc5cccc6c5CN(C5CCC(=O)NC5=O)C6=O)CC4)CC3)c2)nc1C(=O)O[C@@H](C(=O)Nc1ccc(F)cc1)c1ccccc1` (stereo partly drawn) [TDH-439, (R)-2-((4-fluorophenyl)amino)-2-oxo-1-phenylethyl 3-amino-6-(1-(1-(3-(1-(3-(2-(2,6-dioxopiperidin-3-yl)-1-oxoisoindolin-4-yl)propanoyl)piperidin-4-yl)propanoyl)piperidin-4-yl)-1H-pyrazol-4-yl)pyrazine-2-carboxylate], on MLKL [1], the “Degradation assay (Degradation %) 1 μM” value was determined as 86.02% and the “Degradation assay (Degradation %) 10 μM” value came to 91.86%. Further, in the experiment on FADD−/− Jurkat cells (FADD−/− Jurkat cells), the “Necroptosis inhibition assay (Rescue %) 1 μM” value is 41.96% and the “Necroptosis inhibition assay (Rescue %) 10 μM” value was 43.64%. At MLKL [2], this molecule gave a Kd of 0.91 nM.

As to `Nc1ncc(-c2cnn(C3CCN(CCC4CCN(C(=O)C5CCN(C6=CC(=O)N(C7CCC(=O)NC7=O)C6=O)CC5)CC4)CC3)c2)nc1C(=O)O[C@@H](C(=O)Nc1ccc(F)cc1)c1ccccc1` (stereo partly drawn) [TDH-524, (R)-2-((4-fluorophenyl)amino)-2-oxo-1-phenylethyl 3-amino-6-(1-(1-(2-(1-(1-(1-(2,6-dioxopiperidin-3-yl)-2,5-dioxo-2,5-dihydro-1H-pyrrol-3-yl)piperidine-4-carbonyl)piperidin-4-yl)ethyl)piperidin-4-yl)-1H-pyrazol-4-yl)pyrazine-2-carboxylate], at MLKL [1], the “Degradation assay (Degradation %) 1 μM” value is recorded as 89.35% and the “Degradation assay (Degradation %) 10 μM” value worked out at 83.06%. Besides, in the experiment on FADD−/− Jurkat cells (FADD−/− Jurkat cells), the “Necroptosis inhibition assay (Rescue %) 1 μM” value is 48.61% and the “Necroptosis inhibition assay (Rescue %) 10 μM” value is 15.69%. The molecule also came in with an equilibrium dissociation constant (Kd) at MLKL [2] of 0.99 nM.

On to `Nc1ncc(-c2cnn(C3CCN(C(=O)COCCOCCNC(=O)C4CCN(c5cccc6c5C(=O)N(C5CCC(=O)NC5=O)C6=O)CC4)CC3)c2)nc1C(=O)O[C@@H](C(=O)Nc1ccc(F)cc1)c1ccccc1` (stereo partly drawn) [TDH-194, (R)-2-((4-fluorophenyl)amino)-2-oxo-1-phenylethyl 3-amino-6-(1-(1-(2-(2-(2-(1-(2-(2,6-dioxopiperidin-3-yl)-1,3-dioxoisoindolin-4-yl)piperidine-4-carboxamido)ethoxy)ethoxy)acetyl)piperidin-4-yl)-1H-pyrazol-4-yl)pyrazine-2-carboxylate], for which, at MLKL [1], the “Degradation assay (Degradation %) 1 μM” value is recorded as 33.12% and the “Degradation assay (Degradation %) 10 μM” value was 18.24%. Further, in the experiment on FADD−/− Jurkat cells, the “Necroptosis inhibition assay (Rescue %) 1 μM” value is 67.94% and the “Necroptosis inhibition assay (Rescue %) 10 μM” value was 58.3%. Moreover, binding at MLKL [2] was put at a Kd of 6.7 nM.

Consider `COc1ccc(C(=O)N2CCC3(CC2)CC(N2CCC(CCN4CCC(n5cc(-c6cnc(N)c(C(=O)O[C@@H](C(=O)Nc7ccc(F)cc7)c7ccccc7)n6)cn5)CC4)CC2)C3)cc1N1CCC(=O)NC1=O` [TDH-504, (R)-2-((4-fluorophenyl)amino)-2-oxo-1-phenylethyl 3-amino-6-(1-(1-(2-(1-(7-(3-(2,4-dioxotetrahydropyrimidin-1(2H)-yl)-4-methoxybenzoyl)-7-azaspiro[3.5]nonan-2-yl)piperidin-4-yl)ethyl)piperidin-4-yl)-1H-pyrazol-4-yl)pyrazine-2-carboxylate], for which, on MLKL [1], the “Degradation assay (Degradation %) 1 μM” value stood at 93.87% and the “Degradation assay (Degradation %) 10 μM” value was 94.41%. For the same molecule, in the experiment on FADD−/− Jurkat cells (FADD−/− Jurkat cells), the “Necroptosis inhibition assay (Rescue %) 1 μM” value stood at 94.61% and the “Necroptosis inhibition assay (Rescue %) 10 μM” value was 33.71%. For the same molecule, at MLKL [2], the Kd is 0.23 nM.

Take `Nc1ncc(-c2cnn(C3CCN(CCC4CCN(CC5CCN(c6cc7c(cc6F)C(=O)N(C6CCC(=O)NC6=O)C7=O)CC5)CC4)CC3)c2)nc1C(=O)O[C@@H](C(=O)Nc1ccc(F)cc1)c1ccccc1` (stereo partly drawn) [TDH-514, (R)-2-((4-fluorophenyl)amino)-2-oxo-1-phenylethyl 3-amino-6-(1-(1-(2-(1-((1-(2-(2,6-dioxopiperidin-3-yl)-6-fluoro-1,3-dioxoisoindolin-5-yl)piperidin-4-yl)methyl)piperidin-4-yl)ethyl)piperidin-4-yl)-1H-pyrazol-4-yl)pyrazine-2-carboxylate]: at MLKL [1], the “Degradation assay (Degradation %) 1 μM” value is on record as 55.53% and the “Degradation assay (Degradation %) 10 μM” value came out at 84.44%. In addition, in the experiment with FADD−/− Jurkat cells (FADD−/− Jurkat cells), the “Necroptosis inhibition assay (Rescue %) 1 μM” value is given as 24.14% and the “Necroptosis inhibition assay (Rescue %) 10 μM” value is on record as −67.06%. At MLKL [2], this molecule gave a Kd of 0.9 nM.

For `Nc1ncc(-c2cnn(C3CCN(CCC4CCN(C(=O)COc5ccc6c(c5)C(=O)N(C5CCC(=O)NC5=O)C6=O)CC4)CC3)c2)cc1C(=O)OC(C(=O)Nc1ccc(F)cc1)c1ccccc1` (stereo not shown) [TDH-300, 2-((4-fluorophenyl)amino)-2-oxo-1-phenylethyl 2-amino-5-(1-(1-(2-(1-(2-((2-(2,6-dioxopiperidin-3-yl)-1,3-dioxoisoindolin-5-yl)oxy)acetyl)piperidin-4-yl)ethyl)piperidin-4-yl)-1H-pyrazol-4-yl)nicotinate], on MLKL [1], the “Degradation assay (Degradation %) 1 μM” value worked out at 54.31% and the “Degradation assay (Degradation %) 10 μM” value is on record as 69.42%. Besides, in the experiment with FADD−/− Jurkat cells, the “Necroptosis inhibition assay (Rescue %) 1 μM” value came to 55.98% and the “Necroptosis inhibition assay (Rescue %) 10 μM” value is listed as 38.09%. For the same molecule, at MLKL [2], the Kd is 9 nM.

Turning to `Nc1ncc(-c2cnn(C3CCN(CCOCCOCCOCCNC(=O)CNc4cccc5c4C(=O)N(C4CCC(=O)NC4=O)C5=O)CC3)c2)nc1C(=O)O[C@@H](C(=O)Nc1ccc(F)cc1)c1ccccc1` (stereo partly drawn) [TDH-143, (R)-2-((4-fluorophenyl)amino)-2-oxo-1-phenylethyl 3-amino-6-(1-(1-(1-((2-(2,6-dioxopiperidin-3-yl)-1,3-dioxoisoindolin-4-yl)amino)-2-oxo-6,9,12-trioxa-3-azatetradecan-14-yl)piperidin-4-yl)-1H-pyrazol-4-yl)pyrazine-2-carboxylate], on MLKL [1], the “Degradation assay (Degradation %) 1 μM” value is on record as 64% and the “Degradation assay (Degradation %) 10 μM” value worked out at 85.29%. In the experiment with FADD−/− Jurkat cells, the “Necroptosis inhibition assay (Rescue %) 1 μM” value was 20.58% and the “Necroptosis inhibition assay (Rescue %) 10 μM” value came out at 64.35%. Also, the Kd on MLKL [2] came to 4.5 nM.

`Nc1ncc(-c2ccc(N3CCN(CCOCCOCCNC(=O)COc4cccc5c4C(=O)N(C4CCC(=O)NC4=O)C5=O)CC3)nc2)nc1C(=O)OC(C(=O)Nc1ccc(F)cc1)c1ccccc1` (stereo not shown) [TDH-261, 2-((4-fluorophenyl)amino)-2-oxo-1-phenylethyl 3-amino-6-(6-(4-(2-(2-(2-(2-((2-(2,6-dioxopiperidin-3-yl)-1,3-dioxoisoindolin-4-yl)oxy)acetamido)ethoxy)ethoxy)ethyl)piperazin-1-yl)pyridin-3-yl)pyrazine-2-carboxylate]: at MLKL [1], the “Degradation assay (Degradation %) 1 μM” value stood at 34.54% and the “Degradation assay (Degradation %) 10 μM” value is 42.25%. In the experiment with FADD−/− Jurkat cells, the “Necroptosis inhibition assay (Rescue %) 1 μM” value is on record as 15.5% and the “Necroptosis inhibition assay (Rescue %) 10 μM” value was 14.28%. Besides, the Kd at MLKL [2] came to 43 nM.

On to `COc1ccc(C(=O)N2CCC3(CC2)CC(N2CCC(CN4CCC(n5cc(-c6cnc(N)c(C(=O)O[C@@H](C(=O)Nc7ccc(F)cc7)c7ccccc7)n6)cn5)CC4)CC2)C3)cc1N1CCC(=O)NC1=O` [TDH-503, (R)-2-((4-fluorophenyl)amino)-2-oxo-1-phenylethyl 3-amino-6-(1-(1-((1-(7-(3-(2,4-dioxotetrahydropyrimidin-1(2H)-yl)-4-methoxybenzoyl)-7-azaspiro[3.5]nonan-2-yl)piperidin-4-yl)methyl)piperidin-4-yl)-1H-pyrazol-4-yl)pyrazine-2-carboxylate], for which the “Degradation assay (Degradation %) 1 μM” value on MLKL [1] was 93.09%. In the experiment with FADD−/− Jurkat cells (FADD−/− Jurkat cells), the “Necroptosis inhibition assay (Rescue %) 1 μM” value turned out to be 94.80% and the “Necroptosis inhibition assay (Rescue %) 10 μM” value was 14.61%. On MLKL [2], this molecule yielded a dissociation constant (Kd) of 0.44 nM.
